The values below come from US5753691A, “Agents for inhibiting the production of IL-1β and the release of TNFα” (Nisshin Flour Milling Co., Ltd., priority 1994, dated 1998).

In general, IC50 refers to the point on the concentration scale where inhibition reaches its midpoint. Low readings indicate higher potency, high ones lower potency.

One data set relates to TNFα. As to the kind of experiment: Inhibition of TNFα release from THP-1 cells stimulated with PMA and polyinosic acid (human TNFα ELISA). Format: cell-based. The settings on record: 3×10^6 cells/ml, compound 1 h, then PMA 2 μg/ml and polyinosic acid 200 μg/ml, 24 h, supernatant. As to the method:
The pyrrolidinone derivatives of the present invention were evaluated for the activity to inhibit the release of TNFα, in accordance with the following method.
Then, PMA and polyinosic acid were added to each well so as to provide final concentrations of 2 μg/ml and 200 μg/ml, respectively. […] After incubation, a supernatant was recovered from each well by means of Pipetteman available from Gilson Co., Ltd. An amount of TNFα in the supernatant was assayed by means of the human TNFα ELISA kit available from Genzyme Co., Ltd.
The results are summarized below, expressed in terms of IC50 values in μM unit, wherein the amount of TNFα released at the time of no addition of the pyrrolidinone derivatives is defined as 100 and the concentration of each test compound of the present invention to inhibit 50% the TNFα release is defined as IC50.
Background: In an ELISA, binding on a coated surface is turned into a signal by an enzyme label.

A further data set concerns IL-1β. The data set can be described thus: Inhibition of IL-1β production in THP-1 cells stimulated with PMA and polyinosic acid (enzyme immunoassay). The data set is classed as cell-based. The note with it: Homo sapiens, 3×10^6 cells/ml, compound 1 h, then PMA 2 μg/ml and polyinosic acid 200 μg/ml, 24 h, supernatant. The procedure:
The pyrrolidinone derivatives of the present invention were evaluated for the activity to inhibit the production of IL-1β, in accordance with the following method.
Then, 12-o-tetradecanoylphorbol-13-acetate (PMA) and polyinosic acid were added to each well so as to provide final concentrations of 2 μg/ml and 200 μg/ml, respectively. […] After incubation, a supernatant was recovered from each well by means of Pipetteman available from Gilson Co., Ltd. Then, an amount of the IL-1β in the supernatant was assayed by means of the enzyme immunoassay kit available from Cayman Chemical Co., Ltd.
The results are summarized below, expressed in terms of IC50 values in μM unit, wherein the amount of IL-1β produced at the time of no addition of the pyrrolidinone derivative is defined as 100 and the concentration of each test compound of the present invention to inhibit 50% the IL-1β production is defined as IC50.

On to `O=C(C=Cc1ccccc1)N1CCCC1=O` [Compound 1], for which the values for the half-inhibitory concentration (IC50) in the data set on TNFα and with IL-1β were 2.8 µM and 26 µM, respectively. `COc1ccccc1C=CC(=O)N1CCCC1=O` [Compound 2] came in with a half-maximal inhibitory concentration (IC50) in the data set with IL-1β of 86 µM. On the same count and under the same terms, with `COc1cccc(C=CC(=O)N2CCCC2=O)c1` [Compound 3] the figure was 73 µM; with `COc1ccc(C=CC(=O)N2CCCC2=O)cc1` [Compound 4], 73 µM.

With `COc1ccc(C=CC(=O)N2CCCC2=O)cc1OC` [Compound 5], the half-maximal inhibitory concentration (IC50) is 16 µM in the data set with TNFα and 69 µM with IL-1β. Take `O=C(C=Cc1ccc([N+](=O)[O-])cc1)N1CCCC1=O` [Compound 9]: the IC50 turned out to be 3 µM in the data set on TNFα and 13 µM in the data set with IL-1β. Turning to `O=C(C=Cc1ccc([N+](=O)[O-])cc1[N+](=O)[O-])N1CCCC1=O` [Compound 10], in the data set with THP-1 cells, the cytotoxicity result is reported as “no cytotoxicity was found”. On to `O=C(C=Cc1ccccn1)N1CCCC1=O` [Compound 12], for which the IC50 in the data set with TNFα was 4.6 µM; in the data set on IL-1β, 1.4 µM.

For the compound `O=C(C=Cc1cccnc1)N1CCCC1=O` [Compound 13], the IC50 in the data set on TNFα worked out at 30 µM; with IL-1β, 48 µM. `O=C(C=Cc1ccncc1)N1CCCC1=O` [Compound 14] yielded a 50% inhibitory concentration (IC50) in the data set on IL-1β of 42 µM.
